Where “and” joins values, the source holds several entries; their conditions need not be identical. Equal values may be shown once.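 Cultured in 96-well plates, cells were exposed to test compound for 48 hours across five concentrations. The concentration for 50% growth inhibition is given as GI50. The concentration for full growth arrest is given as TGI.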
Assays:
Test in all cases: NCI tumour cell line growth inhibition, 48 h
HL-60(TB) leukemia = system: HL-60(TB) leukemia
MALME-3M melanoma = system: MALME-3M melanoma
SNB-19 CNS = system: SNB-19 CNS
SNB-75 CNS = system: SNB-75 CNS
OVCAR-3 ovarian = system: OVCAR-3 ovarian
OVCAR-5 ovarian = system: OVCAR-5 ovarian
HCT-15 colon = system: HCT-15 colon
HCC-2998 colon = system: HCC-2998 colon
HCT-116 colon = system: HCT-116 colon
SN12C renal = system: SN12C renal

Row | SMILES | TGI (HL-60(TB) leukemia) [µM] | TGI (MALME-3M melanoma) [µM] | TGI (SNB-19 CNS) | TGI (SNB-75 CNS) [µM] | TGI (OVCAR-3 ovarian) [µM] | TGI (OVCAR-5 ovarian) [µM] | TGI (HCT-15 colon) | TGI (HCC-2998 colon) [µM] | TGI (HCT-116 colon) | GI50 (MALME-3M melanoma) [µM] | GI50 (SNB-19 CNS) | GI50 (SNB-75 CNS) [µM] | GI50 (OVCAR-3 ovarian) [µM] | GI50 (OVCAR-5 ovarian) | GI50 (HCT-15 colon) | GI50 (HCC-2998 colon) [µM] | GI50 (HCT-116 colon) [µM] | GI50 (SN12C renal) [µM] | TGI (SN12C renal) [µM] | GI50 (HL-60(TB) leukemia) [µM]
1 | COC(=O)[C@H]1[C@H]2C[C@@H]3c4[nH]c5cc(OC)ccc5c4CCN3C[C@H]2C[C@@H](OC(=O)c2cc(OC)c(OC)c(OC)c2)[C@@H]1OC | 30.5 | 34.2 | 41 µM | 10.2 | 32.9 | > 100 | 87.8 µM | 47.1 | 31.5 µM |  |  |  |  |  |  |  |  |  |  | 
2 | O=C(/C=C1\C(=O)N(Cc2ccc([N+](=O)[O-])cc2)c2ccccc21)c1ccc(OCCN2CCCCC2)cc1 |  | 2.74 | 2.92 µM | 11.3 | 2.57 | 3.09 | 2.48 µM | 2.93 | 1.43 µM | 1.22 | 1.56 µM | 2.22 | 1.25 | 1.33 µM | 1.19 µM | 1.57 | 0.366 |  |  | 
3 | O=C(CC(=O)C(=O)Nc1ccccc1)CC(c1ccccc1)c1c(O)c2ccccc2oc1=O (configuration not stated) | > 100 | > 100 | > 100 µM | > 100 | > 100 | > 100 | > 100 µM | > 100 | > 100 µM |  |  |  |  |  |  |  |  |  |  | 
4 | O=C(Cn1c(=O)c(-c2ccccc2)nc2ccccc21)c1ccc(Cl)cc1 |  | > 100 | > 100 µM |  | > 100 | > 100 | > 100 µM | > 100 | > 100 µM | > 100 | 42.2 µM |  | 46.6 | > 100 µM | > 100 µM | 99.5 | > 100 | 48.6 | > 100 | 
5 | CC1(C)OC(=O)[C@@](C)([C@H](O)c2ccccc2)O1 | > 100 | > 100 | > 100 µM | > 100 | > 100 |  |  | > 100 | > 100 µM |  |  |  |  |  |  |  |  |  | > 100 | 
6 | COc1cc2c(c(OC)c1OC)C(=O)CC(c1cccc(NC(=O)c3ccc(Br)cc3)c1)O2 (configuration not stated) | 4.14 | 7.39 | > 100 µM |  |  | > 100 | > 100 µM | > 100 | > 100 µM | 1.47 | 4.25 µM |  |  | > 100 µM | 2.31 µM | 7.49 | 2.63 | 3.06 | > 100 | 1.58
7 | O=C(CCN1CCOCC1)Nc1ccc(F)cc1F | > 100 | > 100 | > 100 µM |  | > 100 | > 100 | > 100 µM |  | > 100 µM |  |  |  |  |  |  |  |  |  | > 100 | 
8 | COc1cc([N+](=O)[O-])c(S(=O)(=O)O)cc1NS(=O)(=O)c1ccc(C)cc1 | > 100 |  | > 100 µM | > 100 | > 100 | > 100 | > 100 µM |  | > 100 µM |  |  |  |  |  |  |  |  |  | > 100 | 
9 | O=C(C/C(=N\NC(=O)C[n+]1ccccc1)C(=O)Nc1nc2ccc([N+](=O)[O-])cc2s1)CC(c1ccccc1)c1c(O)c2ccccc2oc1=O (configuration not stated) | > 100 | > 100 | > 100 µM |  | > 100 | > 100 |  | > 100 | > 100 µM |  |  |  |  |  |  |  |  |  | > 100 | 
10 | C/C=C(\C)c1cc(=O)c2c(C)cc3c(c2o1)C(=O)c1c(O)c(C2CC(C)(N(C)C)C(O)C(C)O2)cc(C2CC(N(C)C)C(O)C(C)O2)c1C3=O (configuration not stated) | 6.82 |  | 7.54 µM and 28.8 µM |  |  |  | 5.15 µM and 24.4 µM |  | 1.3 µM and 10.2 µM |  | 0.404 µM and 2.6 µM |  |  | 0.579 µM and 3.79 µM | 0.42 µM and 3.22 µM |  |  |  |  | 
11 | O=C(O)C1CCc2nnc(-c3ccccc3)n21 (configuration not stated) | > 100 | > 100 | > 100 µM | > 100 | > 100 |  | > 100 µM | > 100 | > 100 µM |  |  |  |  |  |  |  |  |  | > 100 | 
12 | C/C(=N/NC(=O)c1ccncc1)c1ccc(NC(=O)C(=O)Nn2c(=S)[nH]c3ccccc3c2=O)cc1 |  | > 100 | > 100 µM | > 100 | > 100 | > 100 | > 100 µM | > 100 | > 100 µM |  |  |  |  |  |  |  |  |  | > 100 | 
13 | CN(C)c1ccc2c(c1)CN1C(=O)c3ccccc3C1=N2 | > 100 | > 100 | > 100 µM | > 100 | > 100 | > 100 | > 100 µM |  | > 100 µM | > 100 | > 100 µM | > 100 | > 100 | > 100 µM | > 100 µM |  | > 100 | > 100 | > 100 | > 100
14 | CC1(C)C(c2ccccc2)=NN(O)c2ccccc21 | > 100 | > 100 | > 100 µM | > 100 | > 100 | > 100 | > 100 µM | > 100 | > 100 µM |  |  |  |  |  |  |  |  |  |  | 
15 | CCOC(=O)c1cc(/C=C/C(C)=C/C(=O)OC)oc1-c1ccccc1 | > 100 | > 100 | > 100 µM |  | > 100 | > 100 | > 100 µM | > 100 | > 100 µM |  |  |  |  |  |  |  |  |  | > 100 | 
16 | CCOC(=O)C1=C(C)NC2SC(=O)/C(=C\c3ccccc3Cl)N2C1c1ccccc1 (configuration not stated) | > 100 |  | > 100 µM | > 100 | > 100 | > 100 | > 100 µM | > 100 | > 100 µM |  | > 100 µM | > 100 | > 100 | > 100 µM | > 100 µM | > 100 | > 100 | > 100 | > 100 | 59.5
17 | O=[N+]([O-])c1cc([N+](=O)[O-])c(Cl)c(Cl)c1Cl | 4.69 | 3.77 | 12 µM | 2.95 | 2.4 |  |  | 8.32 | 0.743 µM | 1.7 | 3.36 µM | 1.54 | 1.18 |  |  | 2.84 | 0.24 |  |  | 2.07
18 | C=CCC1C(=O)C(C(=O)OC)N2CCc3c([nH]c4ccccc34)C12 (configuration not stated) | > 100 | > 100 | > 100 µM |  | > 100 | > 100 | > 100 µM | > 100 | > 100 µM |  |  |  |  |  |  |  |  |  | > 100 | 
19 | CN1C(OCc2ccccc2)c2c(ccc3c2OCO3)C2C=Cc3cc4c(cc3C21)OCO4 (configuration not stated) |  | 2.52 | 3.06 µM | 2.71 | 1.97 | 2.86 | 1.83 µM | 2.99 | 1.44 µM |  |  |  |  |  |  |  |  |  | 2.61 | 
20 | O=S(=O)(Nc1cc(Br)c(O)c2ccccc12)c1ccc(F)cc1 | 6.95 | 3.84 | 28 µM | 17.1 | 6.4 |  | 11.3 µM | 33.4 | 6.44 µM | 2.03 | 9.35 µM | 3.57 | 2.56 |  | 2.95 µM | 18.4 | 2.33 | 2.04 | 4.36 | 2.61
21 | Cc1cc(N2CCN(C)CC2)nc(NCc2cc(Nc3ccnc4cc(Cl)ccc34)ccc2F)n1 | 3.96 | 3.89 | > 100 µM | 5.56 | 4.15 |  | 8.36 µM | 4.85 | 3.3 µM | 2.08 | 3.32 µM | 1.69 | 2 |  | 2.21 µM | 1.79 | 1.5 | 2.3 | 5.62 | 1.86
22 | N=Nc1c(OC(=O)Nc2ccccc2)[nH]c2ccccc12 |  | 29.2 | 63 µM | 50 | 26.7 | > 100 | > 100 µM | 29.7 | 31.6 µM |  |  |  |  |  |  |  |  |  | 48.7 | 
23 | COc1cc(-c2nn(-c3ccc(NC(=O)Nc4ccc(Cl)c(Cl)c4)cc3)cc2-c2ccncc2)ccc1Cl | > 100 |  | > 100 µM | 9.75 | 8.63 | > 100 | 14.1 µM | 7.65 | 11 µM |  | 5.29 µM | 2.13 | 3.02 | 2.54 µM | 2.88 µM | 2.62 | 3.08 | 3.96 | > 100 | 3.55
24 | CCNC(C)(C)C(SS)c1ccc(Br)cc1 (configuration not stated) | 53 | > 100 | > 100 µM | > 100 | > 100 | > 100 | > 100 µM |  | > 100 µM |  |  |  |  |  |  |  |  |  | > 100 | 
25 | CNC(=S)N/N=C1\CC(c2ccccc2)Oc2ccccc21 (configuration not stated) |  | > 100 | > 100 µM | > 100 | > 100 | > 100 |  | > 100 | > 100 µM |  |  |  |  |  |  |  |  |  | > 100 | 
26 | NC1=NC(c2ccc(Cl)cc2)N(c2ccc(S(=O)(=O)Nc3ncccn3)cc2)C(N)=N1 (configuration not stated) | 1.08 | > 100 | > 100 µM | > 100 | > 100 | > 100 | > 100 µM |  | > 100 µM |  |  |  |  |  |  |  |  |  | > 100 | 
27 | [N-]=[N+]=Nc1ccc(CCN2CCN(c3cccc(C(F)(F)F)c3)CC2)cc1I | 45.2 | > 100 | > 100 µM | > 100 | > 100 | > 100 | > 100 µM |  | > 100 µM |  |  |  |  |  |  |  |  |  | > 100 | 
